Data as given in a melting point compilation (Tetko et al.; mined from patent text by program, amines drawn as free bases though some values may be those of a salt).

| melting point [°C] | SMILES |
| --- | --- |
| 118 to 119 | CCC(O)(CC)C1(c2onc(-c3ccc(O)cc3)c2-c2ccccc2)CC1 |
| 98 to 101 | CC(C)c1ccc(N(Cc2cnn(Cc3ccc(Cl)s3)c2)C(=O)C2CCCc3c(O)cccc32)cn1 (configuration not stated) |
| 260 to 261 | Cc1ccc2nc(C3(c4ccc(S(N)(=O)=O)cc4)C=C(C(F)(F)F)NN3)oc2c1 (configuration not stated) |
| 259 to 261 | CN1CCC(c2nc(-c3ccncc3)c(-c3ccc(F)cc3)[nH]2)CC1 |
| 236 to 237 | CC(C)OC(=O)Nc1ccc(C2=NNC(=O)CC2C)cc1 (configuration not stated) |
| 176 to 178 | CCCCNC(=O)c1ccccc1CN1C(=O)C2(COc3cc4c(cc32)CCO4)c2ccccc21 (configuration not stated) |
| 142 to 143 | COc1ccc(S(=O)(=O)N(Cc2cc(C(C)(C)C)c(O)c(C(C)(C)C)c2)c2cccnc2)cc1 |
| 172 | CCOC(=O)CN(c1ccc(Cl)cc1)[C@H]1c2cc(C#N)ccc2OC(C)(C)[C@@H]1O |
| 147 to 149 | CN1C(=O)CC[C@]2(C)c3ccc(-c4ccc([N+](=O)[O-])s4)cc3CC[C@@H]12 |
| 193 to 194 | Nc1ncnc2c1c(-c1cccc(O)c1)cn2C1CC(CN2CCCC2)C1 (configuration not stated) |
| 165 to 167 | COc1ccc(-c2ccc(C(=O)Nc3cc4ncc(CN5CCCC5)cc4cc3C)cc2F)cc1 |
| 168 | COc1c(Cl)c(-c2ccc(C(C)C)cc2)cc2oc(=O)c(C)c(C)c12 |
| 138 | CC1CCN(C(=O)c2nc(-c3ccccc3)nc3ccccc23)CC1 |
| 136 to 137 | O=C1Nc2ccccc2C1CCCCN1CCN(c2ccc(Cl)cc2)CC1 (configuration not stated) |
| 177 to 182 | O=C(O)c1cn(C2CC2)c2c(F)c(N3CC4CC3CN4Cc3ccc([N+](=O)[O-])cc3)c(F)cc2c1=O (configuration not stated) |
| 171 to 172 | CC(=O)N1CCN(Cc2cnc(-c3cc4c(C)ccc(N(C)S(=O)(=O)c5cccs5)c4[nH]3)s2)CC1 |

| melting point [°C] | SMILES |
| --- | --- |
| 113 to 114 | CC(C)(C)c1cc(CCc2ccccc2NC(=O)N2CCCCC2CCOCc2ccccc2)cc(C(C)(C)C)c1O (configuration not stated) |
| 197 to 202 | CN(C)c1ccc(-c2ccc3c(c2)CC[C@H]2N(C)C(=O)CC[C@]32C)cc1 |
| 200 to 201 | CC1(C)CCC(C)(C)c2cc(-c3cc(-c4ccc(C(=O)O)cc4)ccc3OCCCCCCO)ccc21 |
| 73 to 74 | CC(C)OC(=O)c1cc(F)c(F)c(-c2ccc(Cl)cc2)n1 |
| 95 to 96 | CC(=O)CSc1nc2ccccc2cc1-c1ccc(F)cc1 |
| 215 to 217 | O=[N+]([O-])c1oc2ccc(-c3nnn[nH]3)cc2c1-c1ccccc1 |
| 195 to 200 | CCNC1(c2ccccc2Cl)C(=O)Nc2ccc(OCC)cc21 (configuration not stated) |
| 213 to 215 | O=C1c2cccnc2N(c2ccccc2)C(=O)C12CCCCO2 (configuration not stated) |
| 116 to 118 | CCc1[nH]c(=S)n(Nc2cccc(Cl)c2)c1-c1ccccc1 |
| 222 to 223 | Cc1cc(=O)n(C)c2ccc(C3=NNC(=O)CC3CO)cc12 (configuration not stated) |
| 55 to 58 | Cc1ccc(C(c2ccccc2)C(O)CN(C)C)cc1 (configuration not stated) |
| 172 to 175 | CCc1ccc(-n2c(-c3ccccn3)nc(SC)c(C#N)c2=O)cc1 |
| 165 to 167 | Cc1cc(C(=O)N2CCOCC2)ncc1C(c1cc(F)ccc1F)S(=O)(=O)c1ccc(F)cc1 (configuration not stated) |
| 230 to 231 | O=c1c(Cl)c2sc3ccccc3nc-2c2ccccc12 |
| 120 to 122 | CNC(=O)c1cccc2c1C1(COc3cc4c(cc31)OCCO4)C(=O)N2C (configuration not stated) |
| 105 to 107 | CC(C)(C)c1cc(Nc2ccccc2C=O)cc(C(C)(C)C)c1O |

Second part, the molecule before the results:

| SMILES | melting point [°C] |
| --- | --- |
| CC1(CO)C(=O)N(c2ccc(C#N)c(C(F)(F)F)c2)C(=O)N1CC#N (configuration not stated) | 171 |
| CCCCCCCCCCCCNC(=O)c1cc(-c2ccc(OC)cc2)c(OCC(=O)O)c(-c2cccc(Cl)c2)c1 | 114 to 117 |
| Cn1cc(C(N)=O)c(=O)c2sccc21 | 255 to 258 |
| CN(c1ccc(Cl)nc1)S(C)(=O)=O | 87 to 90 |
| COC(=O)CCCCCCc1ncsc1C(=O)O | 113 to 114 |
| CC[C@H]1[C@H](O)[C@@H](C)C(=O)N1c1ccc(C#N)c(Cl)c1 | 120 to 123 |
| Oc1cc(O)c2c(-c3cc(F)cc(F)c3)coc2c1 | 149 to 151 |
| CCCn1c(=O)c2[nH]c([C@@H](C)Cc3ccccc3)nc2n(CCC)c1=O | 141 to 142 |
| CC(C)(C)OC(=O)N1CCN(c2ccc3ncc(Br)n3n2)CC1 | 176 to 179 |
| CSc1ccc(C)cc1[N+](=O)[O-] | 71 to 73 |
| Cc1cc(CCCCCCCCCCc2cc(C)c(O)c(C(C)(C)C)c2)cc(C(C)(C)C)c1O | 96 to 98 |
| CC(=O)Nc1ccc(Sc2ccc(F)cc2)cc1 | 140 to 141 |
| CC(=O)OC(CN1C(=O)N(C(C)=O)C2(CC(C)(C)N(C)C(C)(C)C2)C1=O)CN1C(=O)N(C(C)=O)C2(CC(C)(C)N(C)C(C)(C)C2)C1=O | 105 to 108 |
| CNC(=S)N1CCc2ncn(C)c2C1 | 235 |
| CC(C)(C)OC(=O)CCc1ccc(O)cc1CN | 154 to 157 |
| N#CCc1ccccc1CCNC(=O)c1ccc([N+](=O)[O-])cc1 | 119 |
| Cc1c(-c2cncn2C)[nH]c(=O)c2c1ccc1nc(Nc3c(Cl)cccc3Cl)n(C)c12 | > 300 |
| COC(=O)C=Cc1cc(F)ccc1C(=O)O | 151 to 153 |
| NC(=O)c1c(N)oc2ccc(Cl)cc2c1=O | 320 |
| c1ccc(CCc2cc3cccnc3[nH]2)cc1 | 157 to 158 |
| CC1(CC(=O)Nc2cccc3ncccc23)CCCCC1 | 133 to 135 |
| CCCCNC(=O)c1ccc(Cl)c(-n2nc(CCCC)n(Cc3ccc(-c4ccccc4S(=O)(=O)NC(=O)c4ccccc4Cl)cc3)c2=O)c1 | > 155 |

| SMILES | melting point [°C] |
| --- | --- |
| CN(c1cccc2c(Cl)c(-c3nccs3)[nH]c12)S(=O)(=O)c1cccs1 | 222 to 223 |
| O=C(O)C(=O)CC(=O)c1cc(CCc2ccccc2)cn1Cc1ccc(F)cc1 | 135 to 137 |
| COc1ccc(C(=O)c2ccccn2)c(Cl)c1Cl | 104 to 107 |
| CCOC(=O)c1cn(-c2cc(OC)c(F)cc2[N+](=O)[O-])c2c(Cl)c(F)c(F)cc2c1=O | 244 to 248 |
| O=C(Nc1ccc(Oc2ccccc2)cc1)Nc1ccc(C(F)(F)F)cc1 | 211 to 213 |
| CCCCCCc1cnc(-c2ccc(C#N)cc2)nc1 | 53.5 to 54.5 |
| O=C(NO)c1ccc(CNC(=O)c2[nH]c(-c3ccccc3)cc2-c2cccc(Br)c2)cc1 | 145 to 146 |
| O=C(O)CC(NS(=O)(=O)c1c(Cl)cc(Cl)cc1Cl)c1ccccc1 (configuration not stated) | 218 to 219 |
| CCCN[C@H]1CC[C@H](Oc2ccc3[nH]ncc3c2SC)CC1 | 168 to 169 |
| N#CC(c1ccccc1)c1ccc([N+](=O)[O-])cc1C(F)(F)F (configuration not stated) | 70.4 |
| Cc1ccc(CSc2nc3cscc3n2C(=O)OC(C)(C)C)nc1 | 115 to 117 |
| O=C1NCCN1CC#CCn1ccnc1 | 97 to 101 |
| O=C(COc1ccccc1)NCCCn1ccnc1 | 91 to 93 |
| N=C(N)NCCc1ccc(OCCC2Oc3ccccc3N(Cc3cc(Cl)cc(Cl)c3)C2=O)cc1 (configuration not stated) | 116 to 117 |
| CC(C)(C)OC(=O)NCCC[C@H](NC(=O)OC(C)(C)C)C(=O)OC(C)(C)C | 80 to 82 |
| CC(C)(C)OC(=O)NC1CCN(CC(F)(F)F)CC1 | 99.2 to 99.8 |
| CC(C)(NCCONC(C)(C)C(=O)CCn1ccnc1[N+](=O)[O-])C(=O)CCn1ccnc1[N+](=O)[O-] | 90 to 92 |
| O=C(Nc1ccccc1S(=O)(=O)NCC1CCCCC1)N[C@@H](Cc1ccc(NC(=O)c2c(Cl)cncc2Cl)cc1)C(=O)O | 214 |
| COCOc1c(NC(=O)Nc2ccccc2)cc(OC)cc1C(C)(C)C | 121 to 123 |
| Cc1ccc(C(=O)Nc2cc(Cl)c(O)c(Cl)c2)c(O)c1 | 246 to 247 |
| NC(=O)NC1CCCc2ccsc21 (configuration not stated) | 211 to 213 |
| O=C(O)CCCCCCC(=O)c1cccnc1 | 113 to 115 |

| SMILES | melting point [°C] |
| --- | --- |
| CCCCc1nn(-c2ccc([N+](=O)[O-])cc2C(F)(F)F)c(=O)[nH]1 | 126 to 128 |
| Fc1cc(Br)ccc1OCc1ccccc1 | 64.4 to 66.3 |
| O=C(O)C(=O)CC(=O)c1ccc(OCc2ccccc2)cc1OCc1ccccc1 | 160 to 164 |
| CC(=O)OCc1ccc(N)cc1 | 83 to 84 |
| CCCCCCOc1ccc(NC(=O)Nc2ccccc2CCc2cc(C(C)(C)C)c(O)c(C(C)(C)C)c2)cc1 | 174 to 176 |
| Cc1cccc2c(C(=O)O)cn(C)c12 | 243 |
| Cc1ccc(C(C)C)n1N | 21 to 24 |
| COc1ccnc(CSc2nc3cc4c(cc3[nH]2)C(C)(C)C(=O)C4(C)C)c1C | 218 to 220 |
| Cc1c(C)c2c(c(C)c1O)C(CO)C(C)(C)O2 (configuration not stated) | 89 to 90 |
| O=P(O)(c1ccc(S(=O)(=O)c2ccccc2)cc1)c1ccc(S(=O)(=O)c2ccccc2)cc1 | 155 to 165 |
| CC(C)Cc1cc(-c2cccc(C=O)c2)c(S(=O)(=O)NC(C)(C)C)s1 | 96 to 98 |
| COc1ccccc1N1CCN(c2cc3nc(C(=O)O)c(=O)[nH]c3cc2[N+](=O)[O-])CC1 | 204 to 206 |
| COC(=O)C(=O)c1ccc(OCCCOc2ccccc2)cc1 | 61 to 62 |
| C#Cc1cc2c(Nc3ccc4[nH]ccc4c3)ncnc2cc1OC | 176 |
| COCc1cnc2c(NC(=O)c3c(Cl)cccc3Cl)cccc2c1Cl | 177 |
| OC1(c2ccc(OCc3ccccc3)c(OCc3ccccc3)c2)CCCN(Cc2ccccc2)C1 (configuration not stated) | 80 |
| O=C(CCl)Nc1csc(NC(=O)CCl)n1 | 188 to 192 |
| CCc1nn2c(N)cc(Cl)nc2c1S(=O)(=O)c1ccccc1 | > 220 |
| CCNc1c(S(=O)C(F)(F)F)c(C)nn1-c1c(Cl)cc(C(F)(F)F)cc1Cl (configuration not stated) | 76 |
| CCOc1ccc(C(=O)NCCc2ccc(S(=O)(=O)NC(=O)c3ccc(C(=O)NCC(=O)O)nc3)cc2)cc1OCC | > 230 |
| COc1ccc(CNc2nc(CCCC(=O)O)nc3sc(Cl)cc23)cc1Cl | 114 |
